Measured values taken from patent US20180099931A1 (AbbVie S.à.r.l., priority 2016, published 2018).
pEC50: −log10 of the molar value. Like-named read-outs stand apart in the source and are kept apart here.

Biological target: T1, F508delCFTR (Homo sapiens, UniProt P13569, DEL508-508)
T1 construct: expressed in transfected cells; host or cells: CFBE41o- human lung-derived epithelial cells (CFBE4lo-F508delCFTR-HRP), doxycycline-inducible
Experiment: Cell Surface Expression-Horse Radish Peroxidase (CSE-HRP) Assay;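 for Maximum % activity (with co-corrector): co-corrector and positive control are both the same reference corrector at 2 µM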;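 for Maximum % activity (without co-corrector): percent of the 2 µM on-plate positive control corrector response above DMSO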
Type: cell-based
Conditions: for Emax / Maximum % activity (with co-corrector): maximum at any tested concentration, normalized to on-plate positive control; for Emax: read-out: Maximum % activity (without co-corrector)
Description: Cell Surface Expression-Horse Radish Peroxidase (CSE-HRP) Assay;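 for Maximum % activity (with co-corrector): co-corrector and positive control are both the same reference corrector at 2 µM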;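 for Maximum % activity (without co-corrector): percent of the 2 µM on-plate positive control corrector response above DMSO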
The development was achieved by expressing the F508delCFTR mutation along with a horseradish peroxidase (HRP) in the fourth exofacial loop, and then measuring the HRP activity using luminescence readout from these cells, CFBE4lo-F508delCFTR-HRP, that were incubated overnight with the test corrector compounds, either without or with the co-corrector. […] The test compounds were then added either without or with a co-corrector at the required concentrations and further incubated for 18-24 hours at 33° C. The highest concentration tested was 20 μM with an 8-point concentration response curve using a 3-fold dilution in both the test compound without or with the co-corrector. Three replicate plates were run to determine one EC50. All plates contained negative controls (dimethyl sulfoxide, DMSO) and positive control (2 μM of 3-[(2R,4R)-4-({[1-(2,2-difluoro-1,3-benzodioxol-5-yl)cyclopropyl]carbonyl}amino)-7-methoxy-3,4-dihydro-2H-chromen-2-yl]benzoic acid) as well as on-plate concentration response of the positive control. […] The raw counts from the experiment were analyzed using Accelrys® Assay Explorer v3.3.
1−[3*SDPositive Control+3*SDNegative Control/Absolute(MeanPositive Control−MeanNegative Control)]
wherein “SD” is standard deviation.
The % activity measured at each of the 8 test concentrations of the test compound added either without or with a co-corrector (2 μM of 3-[(2R,4R)-4-({[1-(2,2-difluoro-1,3-benzodioxol-5-yl)cyclopropyl]carbonyl}amino)-7-methoxy-3,4-dihydro-2H-chromen-2-yl]benzoic acid) was normalized to the on-plate positive control using the following formulae:
% activity(Test compound without co-corrector)=[(test compound without co-corrector response−DMSO response)/(positive control response−DMSO response)]*100
% activity(Test compound with co-corrector)=[(test compound with co-corrector response−DMSO response)/(positive control response−DMSO response)]*100
The maximum % activity achieved for the test compound either without or with a co-corrector at any tested concentration is presented in Table 4 along with the respective EC50's calculated using the following general sigmoidal curve with variable Hill slope equation (described as Model 42 in the Accelrys® Assay Explorer v3.3 software):
General sigmoidal curve with concentration, response, top, bottom, EC50 and Hill slope. This model describes a sigmoidal curve with an adjustable baseline, a. The equation can be used to fit curves where response is either increasing or decreasing with respect to the independent variable, “x”.
“x” is a concentration of drug under test. “y” is the response. “a” is the maximum response, and “d” is the minimum response “c” is the inflection point (EC50) for the curve. That is, “y” is halfway between the lower and upper asymptotes when x=c. “b” is the slope-factor or Hill coefficient. The sign of b is positive when the response increases with increasing dose and is negative when the response decreases with increasing dose (inhibition).

[1] = test compound without co-corrector
[2] = test compound without co-corrector, read-out: EC50 (without co-corrector)
[3] = with co-corrector (2 μM of 3-[(2R,4R)-4-({[1-(2,2-difluoro-1,3-benzodioxol-5-yl)cyclopropyl]carbonyl}amino)-7-methoxy-3,4-dihydro-2H-chromen-2-yl]benzoic acid)
[4] = with co-corrector (2 μM of 3-[(2R,4R)-4-({[1-(2,2-difluoro-1,3-benzodioxol-5-yl)cyclopropyl]carbonyl}amino)-7-methoxy-3,4-dihydro-2H-chromen-2-yl]benzoic acid), read-out: EC50 (with co-corrector)

T1 sequence (P13569 with tags, fused parts or gaps DEL508-508): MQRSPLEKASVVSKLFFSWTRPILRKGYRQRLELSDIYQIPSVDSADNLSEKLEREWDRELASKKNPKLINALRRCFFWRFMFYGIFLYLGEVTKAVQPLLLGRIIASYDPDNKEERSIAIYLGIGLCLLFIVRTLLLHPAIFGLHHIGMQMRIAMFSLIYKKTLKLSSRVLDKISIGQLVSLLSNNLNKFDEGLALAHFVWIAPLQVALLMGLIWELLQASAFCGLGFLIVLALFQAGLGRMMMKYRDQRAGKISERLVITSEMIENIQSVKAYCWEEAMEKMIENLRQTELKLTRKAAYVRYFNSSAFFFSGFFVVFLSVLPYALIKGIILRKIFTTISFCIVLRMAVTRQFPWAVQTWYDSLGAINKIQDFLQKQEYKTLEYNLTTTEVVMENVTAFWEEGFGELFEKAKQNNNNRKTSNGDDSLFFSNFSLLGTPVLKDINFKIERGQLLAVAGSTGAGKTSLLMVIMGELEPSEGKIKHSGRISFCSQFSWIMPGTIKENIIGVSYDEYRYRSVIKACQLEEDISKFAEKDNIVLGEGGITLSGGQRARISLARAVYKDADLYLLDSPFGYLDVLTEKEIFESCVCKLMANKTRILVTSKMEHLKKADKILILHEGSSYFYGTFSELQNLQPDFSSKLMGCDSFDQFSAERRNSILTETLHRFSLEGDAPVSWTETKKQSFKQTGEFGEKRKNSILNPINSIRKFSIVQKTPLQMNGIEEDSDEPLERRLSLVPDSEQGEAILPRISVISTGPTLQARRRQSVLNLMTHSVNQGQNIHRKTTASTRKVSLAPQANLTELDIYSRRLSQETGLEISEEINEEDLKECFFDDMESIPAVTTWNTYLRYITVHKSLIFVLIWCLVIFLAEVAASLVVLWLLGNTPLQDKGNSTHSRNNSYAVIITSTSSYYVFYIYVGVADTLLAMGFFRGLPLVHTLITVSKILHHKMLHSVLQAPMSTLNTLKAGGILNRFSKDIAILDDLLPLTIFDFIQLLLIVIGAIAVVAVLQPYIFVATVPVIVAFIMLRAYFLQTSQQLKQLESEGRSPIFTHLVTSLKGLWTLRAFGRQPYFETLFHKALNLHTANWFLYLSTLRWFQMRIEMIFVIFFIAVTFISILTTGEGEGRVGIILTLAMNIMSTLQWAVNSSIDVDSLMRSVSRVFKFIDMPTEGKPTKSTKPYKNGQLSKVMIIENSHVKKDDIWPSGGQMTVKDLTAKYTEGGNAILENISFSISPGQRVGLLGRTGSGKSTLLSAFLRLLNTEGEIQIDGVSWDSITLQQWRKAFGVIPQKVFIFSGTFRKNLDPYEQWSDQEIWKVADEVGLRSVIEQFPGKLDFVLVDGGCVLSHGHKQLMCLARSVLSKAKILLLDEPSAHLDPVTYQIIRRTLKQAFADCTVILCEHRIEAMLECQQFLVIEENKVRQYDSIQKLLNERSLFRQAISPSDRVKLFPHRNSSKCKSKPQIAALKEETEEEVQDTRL

Row | SMILES | Emax [1] [%] | pEC50 [2] | Maximum % activity (with co-corrector) [3] | pEC50 [4]
1 | O=C(O)[C@H]1[C@H](C2CC2)[C@@H](Nc2cc(C(F)(F)F)ccn2)[C@@H](c2ccccc2)N1C(=O)C1CCCCC1 (racemic) [III-33] | < 100 | 5.00 to 6.00 | ++ (≥150 and <350) | 5.00 to 6.00
2 | CC(C)N(C(=O)N1[C@H](c2ccccc2)[C@H](NCc2ccccc2OC(F)F)[C@@H](C)[C@@H]1C(=O)O)C(C)C (racemic) [III-34] | < 100 | 5.00 to 6.00 | ++ (≥150 and <350) | 5.00 to 6.00
3 | COc1cc(C(F)(F)F)ccc1CN[C@@H]1[C@@H](C(C)(C)C)[C@H](C(=O)O)N(C(=O)C2CCCCC2)[C@@H]1c1ccccc1 (racemic) [III-35] | 100 to 200 | 5.00 to 6.00 | +++ (≥350) | > 6.00
4 | CN(C)c1ncc(C(F)(F)F)cc1CN[C@@H]1[C@@H](C(C)(C)C)[C@H](C(=O)O)N(C(=O)C2CCCCC2)[C@@H]1c1ccccc1 (racemic) [III-36] | < 100 | < 5.00 | ++ (≥150 and <350) | 5.00 to 6.00
5 | COc1ccc(Cl)cc1CN[C@@H]1[C@@H](C)[C@H](C(=O)O)N(C(=O)N(C(C)C)C(C)C)[C@@H]1c1ccccc1 (racemic) [III-37] | < 100 | < 5.00 | ++ (≥150 and <350) | 5.00 to 6.00
6 | CC(C)OC(=O)N1[C@H](c2ccccc2)[C@H](Nc2cc(C(F)(F)F)ccn2)[C@@H](C(C)(C)C)[C@@H]1C(=O)O (racemic) [III-38] | < 100 | 5.00 to 6.00 | +++ (≥350) | 5.00 to 6.00
7 | COc1cc(Cl)ccc1CN[C@@H]1[C@@H](C)[C@H](C(=O)O)N(C(=O)N(C(C)C)C(C)C)[C@@H]1c1ccccc1 (racemic) [III-39] | < 100 | < 5.00 | ++ (≥150 and <350) | 5.00 to 6.00
8 | COc1ccc(C(F)(F)F)cc1CN[C@@H]1[C@@H](C(C)(C)C)[C@H](C(=O)O)N(C(=O)C2CCCCC2)[C@@H]1c1cccnc1N(C)C (racemic) [III-41] | 100 to 200 | 5.00 to 6.00 | +++ (≥350) | 5.00 to 6.00
9 | CC(C)(C)[C@@H]1[C@@H](Nc2cc(C#N)ccn2)[C@@H](c2ccccc2)N(C(=O)C2CCCCC2)[C@H]1C(=O)O (racemic) [III-42] | < 100 | 5.00 to 6.00 | ++ (≥150 and <350) | 5.00 to 6.00
10 | CC(C)OC(=O)N1[C@H](c2ccccc2)[C@H](Nc2cccc(C(F)(F)F)n2)[C@@H](C(C)(C)C)[C@@H]1C(=O)O (racemic) [III-44] | < 100 | 5.00 to 6.00 | ++ (≥150 and <350) | 5.00 to 6.00
11 | COc1ccccc1[C@@H]1[C@H](NCc2cccc3c2OC(F)(F)O3)[C@@H](C(C)(C)C)[C@H](C(=O)O)N1C(=O)C1CCCCC1 (racemic) [III-45] | < 100 | 5.00 to 6.00 | ++ (≥150 and <350) | 5.00 to 6.00
12 | Cc1cc(C(F)(F)F)cc(N[C@@H]2[C@@H](C(C)(C)C)[C@H](C(=O)O)N(C(=O)C3CCCCC3)[C@@H]2c2cccnc2N(C)C)n1 (racemic) [III-46] | < 100 | 5.00 to 6.00 | ++ (≥150 and <350) | 5.00 to 6.00
13 | Cc1cc(C(F)(F)F)cc(N[C@H]2C(c3ccccc3)N(C(=O)N(C(C)C)C(C)C)[C@@H](C(=O)O)[C@@H]2C2CC2)n1 (mixture of isomers) [III-47] | < 100 | 5.00 to 6.00 | ++ (≥150 and <350) | 5.00 to 6.00
14 | COc1ccc(Cl)cc1CN[C@@H]1[C@@H](C2CC2)[C@H](C(=O)O)N(C(=O)N(C(C)C)C(C)C)[C@@H]1c1ccccc1 (racemic) [III-48] | < 100 | < 5.00 | ++ (≥150 and <350) | 5.00 to 6.00
15 | Cc1cc(C(F)(F)F)cc(N[C@@H]2[C@@H](C(C)(C)C)[C@H](C(=O)NS(=O)(=O)C(C)(C)C)N(C(=O)C3CCCCC3)[C@@H]2c2ccccc2)n1 (racemic) [III-50] | < 100 | < 5.00 | ++ (≥150 and <350) | 5.00 to 6.00
16 | Cc1cc(C(F)(F)F)cc(N[C@@H]2[C@@H](C(C)(C)C)[C@H](C(=O)NS(=O)(=O)C3(C)CC3)N(C(=O)C3CCCCC3)[C@@H]2c2ccccc2)n1 (racemic) [III-51] | < 100 | 5.00 to 6.00 | ++ (≥150 and <350) | 5.00 to 6.00
17 | Cc1cc(C(F)(F)F)cc(N[C@@H]2[C@@H](C(C)(C)C)[C@H](C(=O)NS(=O)(=O)C3CC3)N(C(=O)C3CCCCC3)[C@@H]2c2ccccc2)n1 (racemic) [III-52] | < 100 | < 5.00 | ++ (≥150 and <350) | > 6.00
18 | CCS(=O)(=O)NC(=O)[C@H]1[C@H](C(C)(C)C)[C@@H](Nc2cc(C(F)(F)F)cc(C)n2)[C@@H](c2ccccc2)N1C(=O)C1CCCCC1 (racemic) [III-53] | < 100 | < 5.00 | ++ (≥150 and <350) | 5.00 to 6.00
19 | Cc1cc(C(F)(F)F)cc(N[C@@H]2[C@@H](C(C)(C)C)[C@H](C(=O)NS(=O)(=O)N(C)C)N(C(=O)C3CCCCC3)[C@@H]2c2ccccc2)n1 (racemic) [III-54] | < 100 | 5.00 to 6.00 | ++ (≥150 and <350) | 5.00 to 6.00
20 | CCN(C)S(=O)(=O)NC(=O)[C@H]1[C@H](C(C)(C)C)[C@@H](Nc2cc(C(F)(F)F)cc(C)n2)[C@@H](c2ccccc2)N1C(=O)C1CCCCC1 (racemic) [III-55] | < 100 | < 5.00 | ++ (≥150 and <350) | 5.00 to 6.00
21 | Cc1cc(C(F)(F)F)cc(N[C@@H]2[C@@H](C(C)(C)C)[C@H](C(=O)NS(C)(=O)=O)N(C(=O)C3CCCCC3)[C@@H]2c2ccccc2)n1 (racemic) [III-56] | < 100 | < 5.00 | ++ (≥150 and <350) | 5.00 to 6.00
22 | O=C(O)[C@@H]1N(C(=O)C2CCCCC2)[C@H](c2ccccc2)[C@H](NCc2ccccc2OC(F)F)C12CC2 (racemic) [III-57] | < 100 | < 5.00 | ++ (≥150 and <350) | 5.00 to 6.00
23 | COc1cccc([C@@H]2[C@H](NCc3ccccc3OC(F)F)[C@@H](C(C)(C)C)[C@H](C(=O)O)N2C(=O)N(C(C)C)C(C)C)n1 (racemic) [III-59] | < 100 | < 5.00 | + (<150) | 5.00 to 6.00
24 | COc1ccc(C(F)(F)F)cc1CN[C@@H]1[C@@H](C(C)(C)C)[C@H](C(=O)O)N(C(=O)C2CCCCC2)[C@@H]1c1ccccn1 (racemic) [III-60] | < 100 | 5.00 to 6.00 | +++ (≥350) | 5.00 to 6.00
25 | COc1ccc(Cl)cc1CN[C@@H]1[C@@H](C(C)(C)C)[C@H](C(=O)O)N(C(=O)C2CCCCC2)[C@@H]1c1ccccn1 (racemic) [III-61] | < 100 | 5.00 to 6.00 | +++ (≥350) | 5.00 to 6.00
